Laboratory results reported in BindingDB's records for doi:10.7270/Q2WS8RVZ (Burnham Center For Chemical Genomics, 2012).

Molecular target: Endothelial PAS domain-containing protein 1 (Homo sapiens, UniProt Q99814)
Sequence (Q99814 whole entry, the tested form may be a part): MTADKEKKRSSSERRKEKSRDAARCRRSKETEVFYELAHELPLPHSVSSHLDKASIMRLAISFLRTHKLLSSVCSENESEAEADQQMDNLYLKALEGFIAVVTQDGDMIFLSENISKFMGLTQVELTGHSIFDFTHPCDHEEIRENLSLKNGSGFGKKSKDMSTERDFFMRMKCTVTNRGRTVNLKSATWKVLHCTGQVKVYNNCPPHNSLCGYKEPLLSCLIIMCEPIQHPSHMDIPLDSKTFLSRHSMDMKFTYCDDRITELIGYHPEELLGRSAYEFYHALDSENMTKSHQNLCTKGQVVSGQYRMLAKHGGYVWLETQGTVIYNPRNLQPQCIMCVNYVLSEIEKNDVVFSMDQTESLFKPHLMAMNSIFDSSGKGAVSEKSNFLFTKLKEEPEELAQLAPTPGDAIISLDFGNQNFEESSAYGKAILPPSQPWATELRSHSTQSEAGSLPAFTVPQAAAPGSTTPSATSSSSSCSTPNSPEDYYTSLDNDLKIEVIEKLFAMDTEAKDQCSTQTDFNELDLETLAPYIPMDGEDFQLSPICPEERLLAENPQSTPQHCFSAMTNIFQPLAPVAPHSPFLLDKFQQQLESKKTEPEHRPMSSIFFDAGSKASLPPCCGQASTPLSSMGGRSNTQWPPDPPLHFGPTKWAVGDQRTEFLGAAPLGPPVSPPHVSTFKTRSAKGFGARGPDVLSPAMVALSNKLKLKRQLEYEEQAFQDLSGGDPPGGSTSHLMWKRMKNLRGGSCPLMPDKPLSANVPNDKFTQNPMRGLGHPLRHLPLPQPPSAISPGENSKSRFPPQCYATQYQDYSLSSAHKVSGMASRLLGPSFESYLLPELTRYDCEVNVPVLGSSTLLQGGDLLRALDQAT

Row | Structure (SMILES) | IC50
1 | COc1cccc(C/N=N/c2ncccc2[N+](=O)[O-])c1OC [SMR000461041] | 8.21 µM
2 | Cc1ccc(CN=Nc2cccc(C(=O)O)c2)s1 | 64.5 µM
3 | COc1cc(CN=O)ccc1OCc1ccc(C(=O)O)cc1 [4-[[4-(hydroximinomethyl)-2-methoxy-phenoxy]methyl]benzoic acid] | 4.29 µM
4 | O=C(O)c1ccc(N=NCc2ccc3ncccc3c2)cc1 | 64.5 µM
5 | O=C(O)c1cccc(N=NCc2cccs2)c1 [3-[(N'E)-N'-(2-thenylidene)hydrazino]benzoic acid] | 5.74 µM
6 | O=C(O)c1cc(N=NCc2ccc3c(c2)OCCO3)ccc1Cl [SMR000242957] | 5.03 µM
7 | O=C(O)c1ccc(N=NCc2ccc(C(F)(F)F)cc2)cc1 [sulfuric acid;4-[(N'E)-N'-[4-(trifluoromethyl)benzylidene]hydrazino]benzoic acid] | 9.84 µM
8 | CC(C)(C)c1ccc(CN=Nc2ccc(C(=O)O)cc2)cc1 | 49.6 µM
9 | Cc1nn(-c2ccccc2)c(Cl)c1CN=Nc1ccc(Cl)c(C(=O)O)c1 [2-chloro-5-[2-[(5-chloro-3-methyl-1-phenylpyrazol-4-yl)methylidene]hydrazinyl]benzoic acid] | 64.5 µM
10 | Cc1nn(-c2ccccc2Cl)c(Cl)c1CN=Nc1cccc(C(=O)O)c1 [3-[2-[[5-chloro-1-(2-chlorophenyl)-3-methylpyrazol-4-yl]methylidene]hydrazinyl]benzoic acid] | 23.9 µM
11 | CC(C)c1ccc(CN=Nc2ccc(C(=O)O)cc2)cc1 [4-[2-[(4-propan-2-ylphenyl)methylidene]hydrazinyl]benzoic acid] | 4.08 µM
12 | c1ccc(CN=Nc2ccc3ccccc3n2)nc1 [SMR002048648] | 5.57 µM
13 | CCOC(=O)Cc1csc(N=NCc2ccc(C(F)(F)F)cc2)n1 [ethyl 2-[2-[(2E)-2-[[4-(trifluoromethyl)phenyl]methylidene]hydrazinyl]-1,3-thiazol-4-yl]ethanoate] | 49.6 µM
14 | CSc1ccc(CN=Nc2cccc(C(=O)O)c2)cc1 [3-[(N'E)-N'-[4-(methylthio)benzylidene]hydrazino]benzoic acid] | 5.33 µM
15 | CCOc1cc(CN=Nc2cccc(C(=O)O)c2)ccc1OC(=O)c1ccccc1 [3-[(N''E)-N''-(4-benzoyloxy-3-ethoxy-benzylidene)hydrazino]benzoic acid] | 4.22 µM
